Test results: ChEMBL document CHEMBL2331086, “Pharmacological properties and predicted binding mode of arylmethylene quinuclidine-like derivatives at the α3β4 nicotinic acetylcholine receptor (nAChR)” (Bioorg Med Chem Lett, 2013)
Activity calls are given as the source filed them. No cut-off for these calls is given here.

Columns and labels:
[1] = target: T1, Neuronal acetylcholine receptor; alpha3/beta4 (Homo sapiens, UniProt P30926+P32297); assay: Agonist activity at human alpha3beta4 nAChR expressed in CHO cells at 1 uM by electrophysiological analysis relative to acetylcholine; type: cell-based
[2] = target: T1, Neuronal acetylcholine receptor; alpha3/beta4; assay: Displacement of [3H]epibatidine from human alpha3beta4 nAChR expressed in CHO cells after 2 hrs by liquid scintillation counting; type: cell-based
[3] = target: T1, Neuronal acetylcholine receptor; alpha3/beta4; assay: Inhibition of human alpha3beta4 nAChR expressed in CHO cells assessed as inhibition of calcium influx by calcium-4 based FLIPR analysis; type: cell-based
[4] = target: T1, Neuronal acetylcholine receptor; alpha3/beta4; assay: Agonist activity at human alpha3beta4 nAChR expressed in CHO cells at 0.1 uM by electrophysiological analysis relative to acetylcholine; type: cell-based
[5] = target: T1, Neuronal acetylcholine receptor; alpha3/beta4; assay: Agonist activity at human alpha3beta4 nAChR expressed in CHO cells at 10 uM by electrophysiological analysis relative to acetylcholine; type: cell-based
[6] = target: T1, Neuronal acetylcholine receptor; alpha3/beta4; assay: Agonist activity at human alpha3beta4 nAChR expressed in CHO cells assessed as calcium influx by calcium-4 based FLIPR analysis relative to nicotine; type: cell-based
[7] = target: T1, Neuronal acetylcholine receptor; alpha3/beta4; assay: Agonist activity at human alpha3beta4 nAChR expressed in CHO cells assessed as calcium influx by calcium-4 based FLIPR analysis; type: cell-based
[8] = target: T2, Muscarinic acetylcholine receptor M1 (Rattus norvegicus, UniProt P08482); assay: Antagonist activity at rat muscarinic M1 receptor isolated from brain
T2 sequence (P08482 whole entry): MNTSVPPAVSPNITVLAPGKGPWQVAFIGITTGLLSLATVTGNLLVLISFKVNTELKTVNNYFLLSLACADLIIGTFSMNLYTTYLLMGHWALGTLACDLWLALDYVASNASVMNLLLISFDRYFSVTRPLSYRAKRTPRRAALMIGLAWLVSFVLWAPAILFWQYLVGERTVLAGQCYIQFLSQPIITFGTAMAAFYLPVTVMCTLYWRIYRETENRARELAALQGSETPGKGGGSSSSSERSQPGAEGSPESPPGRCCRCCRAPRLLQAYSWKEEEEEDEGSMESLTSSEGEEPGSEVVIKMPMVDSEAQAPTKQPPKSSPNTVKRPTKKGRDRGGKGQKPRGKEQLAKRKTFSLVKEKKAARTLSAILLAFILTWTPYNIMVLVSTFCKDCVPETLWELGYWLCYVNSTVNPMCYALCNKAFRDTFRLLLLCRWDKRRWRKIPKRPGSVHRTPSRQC

[9] = target: T3, Muscarinic acetylcholine receptor M2 (Rattus norvegicus, UniProt P10980); assay: Antagonist activity at rat muscarinic M2 receptor isolated from brain
T3 sequence (P10980 whole entry): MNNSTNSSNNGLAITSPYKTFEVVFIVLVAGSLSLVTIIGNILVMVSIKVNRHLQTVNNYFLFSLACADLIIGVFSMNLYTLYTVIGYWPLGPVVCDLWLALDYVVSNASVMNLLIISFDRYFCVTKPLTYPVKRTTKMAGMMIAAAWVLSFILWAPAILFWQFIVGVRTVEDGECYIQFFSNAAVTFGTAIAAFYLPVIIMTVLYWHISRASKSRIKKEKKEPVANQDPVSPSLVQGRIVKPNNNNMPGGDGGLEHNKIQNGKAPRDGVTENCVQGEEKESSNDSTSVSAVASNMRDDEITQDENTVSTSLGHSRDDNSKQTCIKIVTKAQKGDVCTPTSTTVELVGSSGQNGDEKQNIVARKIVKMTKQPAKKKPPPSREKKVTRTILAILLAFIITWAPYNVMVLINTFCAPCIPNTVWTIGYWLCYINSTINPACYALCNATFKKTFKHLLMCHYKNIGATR

[10] = target: T1, Neuronal acetylcholine receptor; alpha3/beta4; assay: Reversible inhibition of human alpha3beta4 nAChR expressed in CHO cells assessed as inhibition of acetylcholine-induced response at 1 uM measured after compound washout by electrophysiological method; type: cell-based
[11] = target: T1, Neuronal acetylcholine receptor; alpha3/beta4; assay: Non-competitive antagonist activity at human alpha3beta4 nAChR expressed in CHO cells assessed as inhibition of nicotine-induced calcium influx incubated for 30 mins prior to nicotine-induction by calcium-4 based FLIPR analysis; type: cell-based

T1 sequence (P30926 whole entry): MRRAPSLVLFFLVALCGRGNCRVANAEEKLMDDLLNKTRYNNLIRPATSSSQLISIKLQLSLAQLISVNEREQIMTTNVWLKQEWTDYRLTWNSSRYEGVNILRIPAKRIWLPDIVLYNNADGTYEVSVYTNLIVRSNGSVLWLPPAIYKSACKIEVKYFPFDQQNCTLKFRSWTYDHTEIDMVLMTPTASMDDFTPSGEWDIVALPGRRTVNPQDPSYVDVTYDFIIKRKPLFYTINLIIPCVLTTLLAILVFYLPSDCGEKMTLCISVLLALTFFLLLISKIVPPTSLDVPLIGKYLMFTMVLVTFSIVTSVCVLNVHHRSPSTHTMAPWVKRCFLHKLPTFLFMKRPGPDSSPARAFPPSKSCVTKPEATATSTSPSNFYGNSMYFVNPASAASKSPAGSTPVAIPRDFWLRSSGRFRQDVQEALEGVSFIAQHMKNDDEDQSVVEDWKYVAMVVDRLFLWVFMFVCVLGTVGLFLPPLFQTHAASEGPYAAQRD
T1 sequence (P32297 whole entry): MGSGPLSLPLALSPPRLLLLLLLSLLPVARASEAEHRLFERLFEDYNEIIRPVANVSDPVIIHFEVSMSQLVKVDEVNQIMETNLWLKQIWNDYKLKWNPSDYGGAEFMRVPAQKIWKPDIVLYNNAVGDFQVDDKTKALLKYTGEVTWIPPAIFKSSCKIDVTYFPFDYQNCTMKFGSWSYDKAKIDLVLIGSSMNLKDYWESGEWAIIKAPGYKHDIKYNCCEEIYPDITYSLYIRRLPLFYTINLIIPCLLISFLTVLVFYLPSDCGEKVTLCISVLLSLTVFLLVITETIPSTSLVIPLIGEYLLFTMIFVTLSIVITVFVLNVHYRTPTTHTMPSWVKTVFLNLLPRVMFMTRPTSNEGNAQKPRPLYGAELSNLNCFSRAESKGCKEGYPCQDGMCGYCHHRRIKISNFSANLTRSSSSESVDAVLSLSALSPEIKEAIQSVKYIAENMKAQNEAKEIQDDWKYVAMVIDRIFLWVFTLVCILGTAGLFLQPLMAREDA

| Compound | Activity [1] [%] | Ki [2] [µM] | IC50 [3] [µM] | Activity [4] [%] | Activity [5] [%] | Emax [6] [%] | EC50 [7] [µM] | IC50 [8] [µM] | IC50 [9] [µM] | inhibition [10] | IC50 [11] [µM] |
| --- | --- | --- | --- | --- | --- | --- | --- | --- | --- | --- | --- |
| c1ccc(C(c2ccccc2)[N+]23CCN(CC2)CC3)cc1 | 0.7 | 8.5 | 15 | 1 | 0.5 | < 10 | – | – | – | – | – |
| C(CN1CCCCC1)=C(c1ccccc1)c1ccccc1 | 0.7 | 2.2 | 0.1 | 0.5 | 0.6 | 31 | > 10 | 0.0759 | 0.372 | inactive | 0.38 |
| c1ccc(C[N+]23CCC(CC2)C(C(c2ccccc2)c2ccccc2)C3)cc1 (stereo not given) | 1 | 2.3 | 0.08 | 0.5 | 0.4 | 10 | 9 | – | – | inactive | 0.6 |
| C(=C1/CN2CCC1CC2)/c1ccccc1 | 2 | 2.1 | 6 | 1 | 7 | 25 | 3 | – | – | – | – |
| c1ccc(C(c2ccccc2)C2CN3CCC2CC3)cc1 (stereo not given) | 2 | 1.5 | 0.2 | 0.5 | 7 | 14 | > 10 | – | – | Active | 0.4 |
| N#CC(c1ccccc1)C1CN2CCC1CC2 (stereo not given) | 2 | 2.1 | 23 | 1 | 6 | < 10 | – | – | – | – | – |
| C(=C1/CN2CCC1CC2)/c1cccnc1 | 22 | 1.6 | 10 | 5 | 56 | 31 | 2 | – | – | – | – |
